Test results reported in patent US11311518B1, “Parenteral dosage form of β3 adrenoreceptor agonists” (Jubilant Pharma Holdings Inc., priority 2021, dated 2022).
Converted amounts (≈) assume the structure as drawn.

What was measured:
[1] = background statement; cited from earlier work
[2] = Solubility of the API in various solvent systems (saturation solubility studies); format: physicochemical
Excerpt: In developing the parenteral formulation of mirabegron, the present inventors conducted extensive research and experiments. The solubility of API was studied in various solvent systems. For formulating immediate release injectable formulations, the solubility of the drug plays an important role as the final parenteral formulation has to be essentially a clear solution. […] Further, the inventors of the present invention were able to achieve maximum API solubility based on series of saturation solubility studies performed. […] The assessment of the successful development and stability of the solutions has been made on basis of the appearance of the solutions, the pH-value, osmolality, impurities content, and stability. The prepared formulations were found acceptable on these parameters.

[3] = tested on: biomarkers such as uncoupling protein 1 (UCP1), PGC-1α in iWAT (Inguinal white adipose tissue); assay: Biomarker expression in iWAT after localized microinjections of the injection formulations; format: in vivo, C57BL/6 mice; conditions: dose up to 1 mg per animal; single and multiple localized microinjections in iWAT; indicates marked thermogenesis
Experimental: In certain non-limiting embodiments, the injection formulations were evaluated to determine the effect of mirabegron in animals (such as C57BL/6 mice etc.). The purpose of this study was to determine the effect of mirabegron on modulation in biomarkers such as uncoupling protein 1 (UCP1), Peroxisome proliferator-activated receptor-gamma coactivator-1alpha (PGC-1α) and others in this category to check pharmacokinetics after single and multiple localized microinjections in iWAT (Inguinal white adipose tissue). […]

Solubility of API in Acetate buffer ([2]; Acetate buffer having pH 4.5, saturation solubility studies): maximum solubility
Solubility of API when pH is adjusted to the acidic side ([2]; pH close to 3.0): soluble
solubility ([2]; solution with pH adjusted to the acidic side, pH 3, aqueous buffer, after pH adjusted to the acidic side): ≤ 100000 µg/mL
Solubility of API in water ([2]; water): practically insoluble
solubility ([2]; water, starting value, before pH adjustment): ~100 µg/mL (≈ 252 µM)
Structure (SMILES): Nc1nc(CC(=O)Nc2ccc(CCNC[C@H](O)c3ccccc3)cc2)cs1 [Mirabegron, (R)-2-(2-aminothiazol-4-yl)-4′-{2-[(2-hydroxy-2 phenylethyl)amino]ethyl}acetanilide]
Solubility in water [1]: practically insoluble
Drug solubility with co-solvent ([2]; co-solvent (such as propylene glycol) with or without heating): failed to achieve desired drug solubility
Expression of biomarkers in iWAT [3]: statistically significant increase
